Test results: patent publication US12419306B2, “Mesostigmata mite control composition” (MEIJI SEIKA PHARMA CO., LTD., priority 2018, dated 2025)

How the values were obtained:
Type in all cases: in vivo
[1] = test system: red mites (Dermanyssus gallinae); experiment: Test Example 1: Control Effect 1 on Red Mites, Pasteur pipette contact test, 72 hours; details: for Ratio of dead and affected mites: 72 hours, unfed adult red mites
Text: The tip of a Pasteur pipette was sealed with Parafilm, and a methanol solution of the compound A, or each pesticide (another pesticide) (single agent) described in the left columns of Tables 2, 4, and 6 described below, or a mixture (mixed agent) of the compound A and each pesticide described in the left column of Tables 2, 4, and 6 described below at a predetermined concentration was poured into the pipette through an upper portion thereof. One minute later, the Parafilm at the tip was detached, and the liquid agent was discharged. After the pipette was air dried, absorbent cotton was inserted to an upper end of the pipette, and 20 unfed adult red mites (Dermanyssus gallinae) were released into the pipette. After the tip was sealed with Hemato-Seal, the pipette was stored in the dark in an incubator at a temperature of 27 to 28° C. and a humidity of 50 to 60%. […] Then, the ratio (%) of dead and affected mites was calculated according to the following formula. The ratio (%) of dead and affected mites={(the number of dead mites+the number of affected mites)/(the number of survived mites+the number of affected mites+the number of dead mites)}×100

[2] = test system: red mites (Dermanyssus gallinae); experiment: Test Example 3: Control Effect 3 on Red Mites, Pasteur pipette contact test, 3 hours; details: unfed adult red mites
Text: The tip of a Pasteur pipette was sealed with Parafilm, and a methanol solution of the compound represented by the formula (11), the compound represented by the formula (12), or flupyrimin (single agent), or a mixture (mixed agents) of the compound represented by the formula (11) or the compound represented by the formula (12) and flupyrimin at a predetermined concentration was poured into the pipette from an upper portion thereof. One minute later, the Parafilm at the tip was removed, and the liquid agent was discharged. After the pipette was air dried, absorbent cotton was inserted to an upper end of the pipette, and 20 unfed adult red mites (Dermanyssus gallinae) were released into the pipette. After the tip was sealed with Hemato-Seal, the pipette was stored in the dark in an incubator at a temperature of 27 to 28° C. and a humidity of 50 to 60%. After 3 hours had passed since the treatment, the mites were observed under a stereomicroscope to determine whether the mites were dead or alive and whether the mites were affected. Then, the ratio (%) of dead and affected mites was calculated according to the following formula. The ratio (%) of dead and affected mites={(the number of dead mites+the number of affected mites)/(the number of survived mites+the number of affected mites+the number of dead mites)}×100

[3] = test system: red mites (Dermanyssus gallinae); experiment: Test Example 2: Control Effect 2 on Red Mites, Pasteur pipette contact test, 3 hours; details: unfed adult red mites
Experimental: One minute later, the Parafilm at the tip was detached, and the liquid agent was discharged. […] Then, the ratio (%) of dead and affected mites was calculated according to the following formula.

[4] = Dermanyssus gallinae, 72 h, read-out: Ratio of dead and affected mites

abamectin
Ratio of dead and affected mites ([1]; single agent 50 ppm): 69.9%

O=C(N=c1ccccn1Cc1ccc(Cl)nc1)C(F)(F)F [Flupyrimin, flupyrimin]
Ratio of dead and affected mites ([1]; single agent 50 ppm): 65.3% | Ratio of dead and affected mites ([1]; single agent 200 ppm): 58.6% | Ratio of dead and affected mites ([1]; single agent 1000 ppm): 83.2% | Ratio of dead and affected mites ([1]; single agent 5000 ppm): 75.0% | Ratio of dead and affected mites ([2]; single agent 50 ppm): 48.8% | Ratio of dead and affected mites ([2]; single agent 200 ppm): 48.5% | Ratio of dead and affected mites ([2]; single agent 1000 ppm): 40.9%

COC(=O)Oc1c(C)c(C)nc2ccc(F)c(F)c12 [Formula (13)]
Ratio of dead and affected mites ([3]; single agent 10 ppm): 89.9%

COP(=O)(OC)C(O)C(Cl)(Cl)Cl (stereo not drawn) [Trichlorfon, trichlorfon]
pest or weed control at 200 ppm [1, 4]: 84.7%

CCc1nc2ccc(F)c(F)c2c(OC(=O)OC)c1C [Formula (12)]
Ratio of dead and affected mites ([3]; single agent 10 ppm): 50.0% | Ratio of dead and affected mites ([3]; single agent 20 ppm): 65.5% | Ratio of dead and affected mites ([2]; single agent 20 ppm): 65.5%

CNC(=O)Oc1cccc2c1OC(C)(C)O2 [Bendiocarb, bendiocarb]
pest or weed control at 50 ppm [1, 4]: 30.5%

CCC(C)c1ccccc1OC(=O)NC (stereo not drawn) [Fenobucarb, fenobucarb]
pest or weed control at 50 ppm [1, 4]: 43.5%

CC1(C)C(C=C(Cl)Cl)C1C(=O)OCc1cccc(Oc2ccccc2)c1 (stereo not drawn) [Permethrin, permethrin]
pest or weed control at 50 ppm [1, 4]: 49.6%

CNC(=O)Oc1cccc2ccccc12 [Carbaryl, carbaryl]
pest or weed control at 50 ppm [1, 4]: 46.6%

COP(=S)(OC)Oc1ccc([N+](=O)[O-])c(C)c1 [Fenitrothion, fenitrothion]
pest or weed control at 200 ppm [1, 4]: 71.8%

CC(C)=CC1C(C(=O)OCN2C(=O)C3=C(CCCC3)C2=O)C1(C)C (stereo not drawn) [Tetramethrin, tetramethrin (phthalthrin)]
pest or weed control at 10 ppm [1, 4]: 39.8%

CNC(=O)Oc1ccccc1OC(C)C [Propoxur, propoxur]
pest or weed control at 200 ppm [1, 4]: 77.9%

CC1(C)[C@H](C(=O)O[C@H](C#N)c2cccc(Oc3ccccc3)c2)[C@@H]1C=C(Br)Br [Deltamethrin, deltamethrin]
pest or weed control at 50 ppm [1, 4]: 75.8%

CCc1nc2ccc(F)c(F)c2c(OC(=O)C2CC2)c1C [Formula (11)]
Ratio of dead and affected mites ([3]; single agent 5 ppm): 53.7% | Ratio of dead and affected mites ([3]; single agent 10 ppm): 53.4% | Ratio of dead and affected mites ([3]; single agent 20 ppm): 62.9% | Ratio of dead and affected mites ([2]; single agent 10 ppm): 53.4% | Ratio of dead and affected mites ([2]; single agent 20 ppm): 62.9%

CC(C)=CC1C(C(=O)OCc2cccc(Oc3ccccc3)c2)C1(C)C (stereo not drawn) [Phenothrin, phenothrin]
pest or weed control at 500 ppm [1, 4]: 65.2%
